PubChem BioAssay (NCI)
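The compound was tested at five concentrations on cells cultured in 96-well plates, with a 48-hour exposure period. GI50 is the concentration that inhibits growth by half. Definition used: TGI = concentration required for complete inhibition of growth.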

Assays:
Test in all cases: inhibition of tumour cell growth, NCI panel, 48 h
[1] = test system: CCRF-CEM leukemia
[2] = test system: COLO 205 colon
[3] = test system: HCC-2998 colon
[4] = test system: K-562 leukemia
[5] = test system: LOX IMVI melanoma
[6] = test system: OVCAR-4 ovarian
[7] = test system: RPMI-8226 leukemia
[8] = test system: SF-268 CNS
[9] = test system: SNB-19 CNS
[10] = test system: U251 CNS

Structure (SMILES) | GI50 [1] | TGI [1] | GI50 [2] | TGI [2] | GI50 [3] | TGI [3] | GI50 [4] | TGI [4] | GI50 [5] | TGI [5] | GI50 [6] | TGI [6] | GI50 [7] | TGI [7] | GI50 [8] | TGI [8] | GI50 [9] | TGI [9] | GI50 [10] | TGI [10]
N.N.N.N.N.N.[I-].[Os] | > 100 µM | > 100 µM | > 100 µM | > 100 µM | > 100 µM | > 100 µM | > 100 µM | > 100 µM | > 100 µM | > 100 µM | > 100 µM | > 100 µM | > 100 µM | > 100 µM | > 100 µM | > 100 µM | > 100 µM | > 100 µM | > 100 µM | > 100 µM
COc1ccc(-c2nn(-c3cccc(NC(=O)Nc4ccc(Cl)c(C(F)(F)F)c4)c3)cc2-c2ccncc2)cc1Cl | 1.9 µM | 6.4 µM | 2.01 µM | 4.2 µM | 5.51 µM | 27 µM | – | – | 2.95 µM | 10.6 µM | 2.9 µM | 9.8 µM | 1.43 µM | 5.29 µM | 4.21 µM | 35.9 µM | 3.77 µM | > 100 µM | 1.32 µM | 3.34 µM
CC1(C)OC(C(N)=O)=C(C(N)=O)O1 | – | > 100 µM | – | > 100 µM | – | > 100 µM | – | > 100 µM | – | > 100 µM | – | > 100 µM | – | – | – | > 100 µM | – | > 100 µM | – | > 100 µM
N/C(=N\N=C\c1cccs1)NO | – | > 100 µM | – | > 100 µM | – | > 100 µM | – | > 100 µM | – | – | – | > 100 µM | – | – | – | > 100 µM | – | > 100 µM | – | > 100 µM
COc1ccc(C(c2ccc(C(C)C)cc(=O)c2O)c2ccc3cccnc3c2O)cc1 (stereo unspecified) | – | > 100 µM | – | 19.3 µM | – | – | – | > 100 µM | – | > 100 µM | – | 23.9 µM | – | 23.6 µM | – | 10.4 µM | – | – | – | 3.5 µM
CCc1ccccc1NC(=O)CCc1n[nH]c(=S)o1 | – | > 100 µM | – | > 100 µM | – | > 100 µM | – | > 100 µM | – | – | – | > 100 µM | – | > 100 µM | – | > 100 µM | – | > 100 µM | – | > 100 µM
CC(=O)NC(CCCCNC(=O)N(CCCl)N=O)C(=O)NCc1ccccc1 (stereo unspecified) | – | > 100 µM | – | > 100 µM | – | > 100 µM | – | > 100 µM | – | – | – | > 100 µM | – | > 100 µM | – | > 100 µM | – | > 100 µM | – | > 100 µM
CC(=O)OCc1cc(OC(C)=O)cnc1COC(C)=O | – | > 100 µM | – | > 100 µM | – | – | – | > 100 µM | – | > 100 µM | – | > 100 µM | – | – | – | > 100 µM | – | > 100 µM | – | > 100 µM
COc1cc2nc(Sc3c([N+](=O)[O-])ncn3C)[nH]c2cc1OC | – | – | – | 30.2 µM | – | > 100 µM | – | – | – | > 100 µM | – | > 100 µM | – | > 100 µM | – | 69.9 µM | – | > 100 µM | – | > 100 µM
Cc1ccc(S(=O)(=O)/N=c2\ssc(Nc3ccccc3)c2Cl)cc1 | – | – | – | – | – | – | 18.4 µM | > 50 µM | 10.2 µM | 20.9 µM | 33.6 µM | > 50 µM | 7.77 µM | 26.8 µM | 6.83 µM | 21.8 µM | 12.8 µM | > 50 µM | 8.92 µM | 21.3 µM
